The values below come from ChEMBL document CHEMBL4024741, “A minimalistic tetrapeptide amphiphile scaffold for transmembrane pores with a preference for sodium” (Bioorg Med Chem Lett, 2017).

Data set [1] is described as follows: Binding affinity to potassium ion in HPTS dye encapsulated EPYC/cholesterol vesicles assessed as increase in internal pH at 5 mol% of lipid after 2 mins in presence of KOH loaded external vesicles by fluorescence spectroscopic analysis (reference value: 5.6 +/- 1.2 10^-3/s).
The nature of data set [2]: Binding affinity to lithium ion in HPTS dye encapsulated EPYC/cholesterol vesicles assessed as increase in internal pH at 5 mol% of lipid after 2 mins in presence of LiOH loaded external vesicles by fluorescence spectroscopic analysis (reference value: 5.6 +/- 1.2 10^-3/s).
A short description of data set [3]: Effect on membrane integrity in EYPC/cholesterol vesicles at 40 uM by dynamic light scattering method. It counts as ADME.
A short description of data set [4]: Binding affinity to sodium ion in HPTS dye encapsulated EPYC/cholesterol vesicles assessed as increase in internal pH at 5 mol% of lipid after 2 mins in presence of NaOH loaded external vesicles by fluorescence spectroscopic analysis (reference value: 5.6 +/- 1.2 10^-3/s).
Data set [5] is described as follows: Binding affinity to sodium ion in lucigenin/NaCl encapsulated EPYC/cholesterol vesicle by fluorescence spectroscopic method.
Data set [6] is described as follows: Binding affinity to potassium ion in 1,2-diphytanoyl-sn-glycero-3-phosphocholine based bilayer membrane assessed as reversal of membrane potential at 0.1 mg/ml in presence of KCl loaded cis membrane.
Data set [7] in a line: Binding affinity to sodium ion in lucigenin/NaCl encapsulated EPYC/cholesterol vesicle at 10 mol% of lipid by fluorescence spectroscopic method.
Data set [8] is described as follows: Binding affinity to potassium ion in 1,2-diphytanoyl-sn-glycero-3-phosphocholine based bilayer membrane assessed as increase in membrane current at 0.1 mg/ml in presence of KCl loaded cis membrane.
Data set [9] is described as follows: Binding affinity to sodium ion in HPTS dye encapsulated EPYC/cholesterol vesicles assessed as increase in internal pH at 20 uM after 2 mins in presence of NaOH loaded external vesicles by fluorescence spectroscopic analysis.

Active and inactive are the calls of the source. The rule behind the calls is not given here.

As to `CCCCCCCCCCCCCC(=O)N[C@@H](C)C(=O)N[C@H](C)C(=O)N[C@@H](C)C(=O)Nc1cccc(C(=O)OC)n1`, the values for the K in data set [1], in data set [2] and in data set [4] were 15.3 ×10⁻³ /s, 14.3 ×10⁻³ /s and 12.4 ×10⁻³ /s, respectively. Moreover, in [3], the Activity entry is listed as “Non-Toxic”.

As to `CCCCCCCCCCCCCC(=O)N[C@@H](C)C(=O)N[C@H](C)C(=O)N[C@@H](C)C(=O)Nc1cccc(C(=O)OCCOCCOCC)n1`, the K amounted to 15.8 ×10⁻³ /s in data set [1], 17.5 ×10⁻³ /s in [2], 9.7 ×10⁻³ /s in data set [7] and 28.9 ×10⁻³ /s in data set [4]. Besides, the EC50 in [5] was 0.94 mol%. Further, the Activity in [6] was -10.8 mV; in [3], “Non-Toxic”; in [8], 30 pA.

Take `CCCCCCCCCCCCCC(=O)N[C@@H](C)C(=O)Nc1cccc(C(=O)N[C@@H](C)C(=O)N[C@H](C)C(=O)OCCOCCOCC)n1`: the outcome in [9] was Active. Besides, the Activity in [6] is -14.9 mV; in data set [3], “Non-Toxic”; in data set [8], 40 pA.
